Key:
[1] = test system: hearing loss; assay: Treatment of hearing loss in a patient, one ear treated, other ear untreated; assay type: in vivo, human
Source text: A patient is diagnosed with hearing loss of the same magnitude in both ears. A composition comprising the calcium channel blocker nifedipine is directly applied to the external ear space of one ear while the other ear is left untreated. […] A patient is diagnosed with hearing loss of the same magnitude in both ears. A composition comprising the ACE inhibitor enalapril is directly applied to the external ear space of one ear while the other ear is left untreated. […] A patient is diagnosed with hearing loss of the same magnitude in both ears. A composition comprising the angiotensin receptor blocker losartan is directly applied to the external ear space of one ear while the other ear is left untreated. […] A patient is diagnosed with hearing loss of the same magnitude in both ears. A composition comprising the calcium channel blocker nifedipine is administered by injection into the middle ear space of one ear while the other ear is left untreated. […] A patient is diagnosed with hearing loss of the same magnitude in both ears. A composition comprising the ACE inhibitor enalapril is administered by injection into the middle ear space of one ear while the other ear is left untreated. […] A patient is diagnosed with hearing loss of the same magnitude in both ears. A composition comprising the angiotensin receptor blocker losartan is administered by injection into the middle ear space of one ear while the other ear is left untreated. […] A patient is diagnosed with hearing loss of the same magnitude in both ears. A composition comprising the calcium channel blocker nifedipine is administered by injection into the inner ear space of one ear while the other ear is left untreated. […] A patient is diagnosed with hearing loss of the same magnitude in both ears. A composition comprising the ACE inhibitor enalapril is administered by injection into the inner ear space of one ear while the other ear is left untreated. […] A patient is diagnosed with hearing loss of the same magnitude in both ears. A composition comprising the angiotensin receptor blocker losartan is administered by injection into the inner ear space of one ear while the other ear is left untreated.

[2] = test system: hearing loss; assay: Prevention of recurrence of hearing loss in a successfully treated patient, one ear treated, other ear untreated; assay type: in vivo, human; conditions: patient after successful treatment, untreated side again exhibits symptoms
Source text: A composition comprising the calcium channel blocker nifedipine is directly applied to the external ear space of one ear while the other ear is left untreated. […] A composition comprising the ACE inhibitor enalapril is directly applied to the external ear space of one ear while the other ear is left untreated. […] A composition comprising the angiotensin receptor blocker losartan is directly applied to the external ear space of one ear while the other ear is left untreated. […] A composition comprising the calcium channel blocker nifedipine is administered by injection into the middle ear space of one ear while the other ear is left untreated. […] A composition comprising the ACE inhibitor enalapril is administered by injection into the middle ear space of one ear while the other ear is left untreated. […] A composition comprising the angiotensin receptor blocker losartan is administered by injection into the middle ear space of one ear while the other ear is left untreated. […] A composition comprising the calcium channel blocker nifedipine is administered by injection into the inner ear space of one ear while the other ear is left untreated. […] A composition comprising the ACE inhibitor enalapril is administered by injection into the inner ear space of one ear while the other ear is left untreated. […] A composition comprising the angiotensin receptor blocker losartan is administered by injection into the inner ear space of one ear while the other ear is left untreated.

[3] = composition directly applied to the external ear space of one ear
[4] = composition injected into the inner ear space of one ear
[5] = composition injected into the middle ear space of one ear

CCOC(=O)[C@H](CCc1ccccc1)N[C@@H](C)C(=O)N1CCC[C@H]1C(=O)O [enalapril]
hearing loss of treated ear compared to untreated ear [1, 3]: reduced hearing loss | hearing loss of treated ear compared to untreated ear [1, 4]: reduced hearing loss | hearing loss of treated ear compared to untreated ear [1, 5]: reduced hearing loss | level of hearing of treated ear after a period of time (recurrence of hearing loss) [2, 3]: maintained the level of hearing | level of hearing of treated ear after a period of time (recurrence of hearing loss) [2, 4]: maintained the level of hearing | level of hearing of treated ear after a period of time (recurrence of hearing loss) [2, 5]: maintained the level of hearing

CCCCc1nc(Cl)c(CO)n1Cc1ccc(-c2ccccc2-c2nn[nH]n2)cc1 [losartan]
hearing loss of treated ear compared to untreated ear [1, 3]: reduced hearing loss | hearing loss of treated ear compared to untreated ear [1, 4]: reduced hearing loss | hearing loss of treated ear compared to untreated ear [1, 5]: reduced hearing loss | level of hearing of treated ear after a period of time (recurrence of hearing loss) [2, 3]: maintained the level of hearing | level of hearing of treated ear after a period of time (recurrence of hearing loss) [2, 4]: maintained the level of hearing | level of hearing of treated ear after a period of time (recurrence of hearing loss) [2, 5]: maintained the level of hearing

— US20210322395A1, “METHOD TO PREVENT AND TREAT HEARING LOSS BY CALCIUM CHANNEL BLOCKERS, ANGIOTENSIN CONVERTING ENZYME INHIBITORS, AND ANGIOTENSIN RECEPTOR BLOCKERS” (priority 2018, published 2021)
